These results are taken from article PMC7376644 (Pharmacology Research & Perspectives, 2020).

Series [1] concerns the target T1, CYP2D6 (Homo sapiens, UniProt P10635). The series can be described thus: Intrinsic clearance, substrate depletion approach. Conditions: rCYP2D6, substrate depletion.
Series [2] addresses T1, CYP2D6. The series can be described thus: in vitro. The following applies: recombinant CYP2D6, pH 7.4.
For series [3], the target named is T2, CYP1A2 (Homo sapiens, UniProt P05177).
T2 sequence (P05177 1-516): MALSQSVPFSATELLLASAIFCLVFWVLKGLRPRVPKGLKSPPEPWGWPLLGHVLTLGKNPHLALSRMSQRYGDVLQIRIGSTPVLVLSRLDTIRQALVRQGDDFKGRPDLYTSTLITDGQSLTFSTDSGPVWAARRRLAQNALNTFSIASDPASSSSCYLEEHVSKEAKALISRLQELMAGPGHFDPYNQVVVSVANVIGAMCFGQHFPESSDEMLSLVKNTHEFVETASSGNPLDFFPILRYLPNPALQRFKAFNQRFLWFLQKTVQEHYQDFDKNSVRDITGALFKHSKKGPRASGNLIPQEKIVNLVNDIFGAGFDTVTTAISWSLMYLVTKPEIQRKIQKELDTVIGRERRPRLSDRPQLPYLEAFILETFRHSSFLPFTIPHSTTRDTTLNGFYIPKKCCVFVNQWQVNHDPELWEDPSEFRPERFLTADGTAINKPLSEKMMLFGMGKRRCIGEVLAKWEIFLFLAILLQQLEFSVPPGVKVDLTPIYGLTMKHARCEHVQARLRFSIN
The series can be described thus: Enzyme kinetics of hydroxylated metabolites formation. Format: in vitro ADME. The arrangement: purchased CYPEX CYP001; host or cells: Escherichia coli. The following applies: CYP1A2, formation of cis‐4‐OH‐PZQ. As to the method: (§1) The reactions were carried out in duplicate at each time point. Incubation conditions used for the determination of K M and V max were optimized for linearity with respect to time and protein concentrations. […] Metabolites were analyzed by LC‐MS/MS as described below. The K M and V max values of each marker substrate were determined using nonlinear least squares regression analysis in GraFit software (version 3.0, Erithacus Software Limited) and SigmaPlot Enzyme Kinetics Module for Windows 7.0 (SPSS, Inc).
(§2) The well‐stirred model was used to estimate the hepatic clearance (CLH) due to metabolism.

Series [4] deals with T3, CYP2C19 (Homo sapiens, UniProt P33261). Described as above. Type of series: in vitro ADME. The arrangement: purchased CYPEX CYP008; host or cells: Escherichia coli. The following applies: CYP2C19, formation of cis‐4‐OH‐PZQ. As to the method:
as §1, §2

Series [5] deals with CYP1A2. Put plainly: CYP selective diagnostic inhibition studies in HLM, furafylline. Format: in vitro ADME, human. The following applies: furafylline 10 µmol/L. As for the experimental part:
(§3) Reactions were carried out in triplicate in 96 well plates. Each reaction was measured at 2 time points, that is at 0 and 30 minutes. […] Furafylline, KTZ, ticlopidine, and quinidine were used as diagnostic inhibitors for CYP 1A2, 3A4/5, 2C19 and 2D6, respectively. The reactions were initiated by addition of NADPH after a pre‐incubation of 5 minutes at 37°C. All reactions were terminated by the addition of 150 µL ice‐cold ACN. Internal standard (0.2 µmol/L DPZ) was added to ACN prior to termination of the assay. This was followed by centrifugation at 4500 g for 20 minutes. An aliquot (50 µL) supernatant was collected and 5 µL was injected and analyzed by liquid chromatography/tandem mass spectrometry (LC/MS/MS). The percent effect of each inhibitor was the estimated contribution of the inhibited CYP calculated using the relationship below: %contribution=amount remaining with inhibitor‐amount remaining without inhibitor/amount remaining without inhibitor×100.

The subject of series [6] is CYP2C19. The series can be described thus: CYP selective diagnostic inhibition studies in HLM, ticlopidine. Format: in vitro ADME, human. Conditions: ticlopidine 10 µmol/L. As to the method: as §3
The target in series [7] is T3, CYP2C19. The series can be described thus: in vitro. The following applies: recombinant CYP2C19, pH 7.4.
The nature of series [8]: Simcyp prediction of total hepatic clearance. The arrangement: species or system human. As for the experimental part:
The clearance of the incubation mixture was expressed as μL/min/pmol for rCYP.
as §2

Series [9] deals with T3, CYP2C19. The series can be described thus: Intrinsic clearance, substrate depletion approach. Conditions: rCYP2C19, substrate depletion.

Values joined by “and” are separate entries in the source; they are usually repeats but may differ in a detail not shown here. Equal entries are not always repeated.

T3 sequence (P33261 whole entry): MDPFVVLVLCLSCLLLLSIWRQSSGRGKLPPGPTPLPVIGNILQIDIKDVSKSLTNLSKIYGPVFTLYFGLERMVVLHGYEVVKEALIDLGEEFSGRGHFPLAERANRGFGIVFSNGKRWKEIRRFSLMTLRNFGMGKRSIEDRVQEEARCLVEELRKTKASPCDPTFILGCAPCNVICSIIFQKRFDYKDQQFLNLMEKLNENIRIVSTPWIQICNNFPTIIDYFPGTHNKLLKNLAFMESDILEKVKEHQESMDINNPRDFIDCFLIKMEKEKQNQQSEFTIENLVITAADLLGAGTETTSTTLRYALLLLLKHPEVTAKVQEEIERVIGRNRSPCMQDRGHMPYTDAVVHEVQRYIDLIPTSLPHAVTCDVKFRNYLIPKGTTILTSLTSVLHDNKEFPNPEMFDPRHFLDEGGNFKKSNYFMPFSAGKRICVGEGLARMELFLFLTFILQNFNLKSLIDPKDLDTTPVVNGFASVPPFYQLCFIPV
T1 sequence (P10635 whole entry): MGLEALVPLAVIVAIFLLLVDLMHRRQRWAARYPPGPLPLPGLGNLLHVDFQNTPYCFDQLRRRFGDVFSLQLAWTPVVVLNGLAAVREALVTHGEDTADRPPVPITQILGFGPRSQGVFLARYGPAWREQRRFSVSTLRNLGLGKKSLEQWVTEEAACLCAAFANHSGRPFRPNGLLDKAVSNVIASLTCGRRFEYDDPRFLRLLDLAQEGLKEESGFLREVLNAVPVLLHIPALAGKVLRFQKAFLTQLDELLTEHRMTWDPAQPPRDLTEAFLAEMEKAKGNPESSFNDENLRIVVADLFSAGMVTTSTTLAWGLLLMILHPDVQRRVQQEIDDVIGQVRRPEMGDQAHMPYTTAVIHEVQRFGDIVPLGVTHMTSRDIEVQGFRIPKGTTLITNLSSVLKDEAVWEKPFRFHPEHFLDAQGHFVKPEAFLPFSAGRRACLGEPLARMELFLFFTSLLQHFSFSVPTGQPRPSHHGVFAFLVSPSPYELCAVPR

The term half-life denotes the time in which the quantity being followed falls by half. Take `O=C(C1CCCCC1)N1CC(=O)N2CCc3ccccc3[C@H]2C1` [S‐PZQ, S‐Praziquantel]: the figures for the “Predicted CLH” value in series [1] and in series [9] were 0.1712 mL/min/kg and 5.600 mL/min/kg, respectively. The entries for the “Predicted CLuH,int” value in [1] and in series [9] were 0.660 mL/min/kg and 30.71 mL/min/kg, respectively. Further, the half-life at 1 µmol/L in series [2] turned out to be 45.3 min; in [7] it was 4.13 min. The “CLuH,int” value was 0.83 mL/min/kg and 0.8300 mL/min/kg in series [3]; 2.44 mL/min/kg and 2.440 mL/min/kg in series [4]. The “Contribution of CYP1A2” value in series [5] is recorded as 27%. In series [6], the “Contribution of CYP2C19” value came to 117%. Also, the “Predicted total CLH (Simcyp)” value is 10.144 mL/min/kg in series [8] (metabolite formation assay) and 6.265 mL/min/kg in series [8] (substrate depletion assay).
Regarding `O=C(C1CCCCC1)N1CC(=O)N2CCc3ccccc3[C@@H]2C1` [R‐PZQ, R‐Praziquantel], the figures for the “Predicted CLH” value in series [1] and in series [9] were 0.2132 mL/min/kg and 3.904 mL/min/kg, respectively. Moreover, the “Predicted CLuH,int” value is recorded as 0.860 mL/min/kg in series [1] and 19.73 mL/min/kg in [9]. Further, the half-life at 1 µmol/L in series [2] was 34.7 min; in series [7] it was 3.6 min. Moreover, the “CLuH,int” value is 7.55 mL/min/kg and 7.550 mL/min/kg in series [3]; 4.60 mL/min/kg and 4.600 mL/min/kg in series [4]. The “Contribution of CYP1A2” value in series [5] is reported as 61%. For the same molecule, the “Contribution of CYP2C19” value in [6] was determined as 64%. In addition, the “Predicted total CLH (Simcyp)” value in series [8] (metabolite formation assay) is reported as 9.777 mL/min/kg; in [8] (substrate depletion assay) it was 6.923 mL/min/kg.
